Reference: patent US11964988B2, “Fused heterocyclic compounds as RET kinase inhibitors” (ARRAY BIOPHARMA INC., priority 2018, dated 2024)

What was measured:
G810R mutant RET kinase = G810R mutant RET kinase (Homo sapiens, UniProt P07949, G810R); assay: biochemical;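 also: HTRF KinEASE-TK enzymatic assay with 1 nM recombinant RET G810R, 1 h at 22 °C, dual-wavelength ratiometric readout, 100% control without compound, 0% from pre-quenched reactions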
G810S mutant RET kinase = G810S mutant RET kinase (Homo sapiens, UniProt P07949, G810S); assay: biochemical;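 also: HTRF KinEASE-TK kinase assay with recombinant enzyme, 1 h at 22 °C, dual-wavelength ratiometric read-out, percent of control (DMSO-only = 100, pre-quenched reaction = 0)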
Experimental: (§1) The potency of compounds inhibiting several different RET kinase forms (Wild Type, V804M, G810R, & G810S) were determined using CisBio's HTRF® KinEASE™-TK assay technology. […] After a 1 hour incubation at 22° C., the extent of reaction was determined using a PerkinElmer EnVision multimode plate reader via HTRF dual wavelength detection, and the percent of control (POC) was calculated using a ratiometric emission factor. One hundred POC was determined using DMSO only samples (no compound present), and 0 POC was determined using pre-quenched control reactions.
The potency of a compound inhibiting G810R or G810S mutant RET kinase was determined using CisBio's HTRF® KinEASE™-TK assay technology. The assays contained G810R or G810S mutant RET produced at Array Biopharma, Inc. (1 nM enzyme). […] After a 1-h incubation at 22° C., the extent of reaction was determined using a PerkinElmer EnVision multimode plate reader via HTRF dual wavelength detection, and the percent of control (POC) was calculated using a ratiometric emission factor. One hundred POC was determined using no test compounds, and 0 POC was determined using pre-quenched control reactions.

RET kinase Wild Type = RET kinase Wild Type (Homo sapiens, UniProt P07949); assay: biochemical;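 also: HTRF kinase activity assay on RET enzyme, 1 h reaction at 22 °C, dual-wavelength readout as percent of control, DMSO-only wells as 100%, pre-quenched reactions as 0%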
Experimental: as §1

RET kinase V804M = RET kinase V804M (Homo sapiens, UniProt P07949, V804M); assay: RET Enzyme Assay (CisBio HTRF KinEASE-TK), V804M; format: biochemical; details: read-out: RET V804M Enz FRET IC50
RET kinase V804M, sequence (P07949 29-1114 V804M): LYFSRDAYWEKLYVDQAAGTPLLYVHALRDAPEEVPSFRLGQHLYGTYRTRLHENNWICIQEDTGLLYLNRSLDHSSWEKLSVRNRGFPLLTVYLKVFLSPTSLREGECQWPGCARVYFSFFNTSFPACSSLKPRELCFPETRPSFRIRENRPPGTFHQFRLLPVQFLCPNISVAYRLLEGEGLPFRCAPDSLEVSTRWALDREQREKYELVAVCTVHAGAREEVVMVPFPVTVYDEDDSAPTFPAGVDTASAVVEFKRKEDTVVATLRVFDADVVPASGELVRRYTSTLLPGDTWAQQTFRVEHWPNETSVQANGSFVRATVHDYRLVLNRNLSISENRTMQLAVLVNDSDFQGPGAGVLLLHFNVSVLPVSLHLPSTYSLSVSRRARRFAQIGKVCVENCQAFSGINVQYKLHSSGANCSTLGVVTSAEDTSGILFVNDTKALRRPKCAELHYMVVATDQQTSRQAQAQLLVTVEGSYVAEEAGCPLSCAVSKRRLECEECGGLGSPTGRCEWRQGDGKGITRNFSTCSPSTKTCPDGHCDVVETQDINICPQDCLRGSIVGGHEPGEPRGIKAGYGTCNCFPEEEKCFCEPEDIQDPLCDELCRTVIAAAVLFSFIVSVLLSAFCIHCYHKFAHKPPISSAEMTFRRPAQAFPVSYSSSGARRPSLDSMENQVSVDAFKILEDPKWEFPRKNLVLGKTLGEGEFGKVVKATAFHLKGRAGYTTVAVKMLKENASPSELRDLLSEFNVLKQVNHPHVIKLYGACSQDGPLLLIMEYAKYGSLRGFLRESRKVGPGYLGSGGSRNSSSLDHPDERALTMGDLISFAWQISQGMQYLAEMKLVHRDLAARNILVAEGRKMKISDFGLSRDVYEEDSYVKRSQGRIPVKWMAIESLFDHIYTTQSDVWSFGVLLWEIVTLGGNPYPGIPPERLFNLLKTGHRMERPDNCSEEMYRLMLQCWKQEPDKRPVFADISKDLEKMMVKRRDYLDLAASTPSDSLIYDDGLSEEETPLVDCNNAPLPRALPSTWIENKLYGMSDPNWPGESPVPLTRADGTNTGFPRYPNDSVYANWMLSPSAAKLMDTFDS

G810S mutant RET kinase, sequence (P07949 29-1114 G810S): as the sequence (P07949 29-1114 V804M) above, with M776V, G782S counted along it
RET kinase Wild Type, sequence (P07949 29-1114): as the sequence (P07949 29-1114 V804M) above, with M776V counted along it
G810R mutant RET kinase, sequence (P07949 29-1114 G810R): as the sequence (P07949 29-1114 V804M) above, with M776V, G782R counted along it

| IC50 (G810R mutant RET kinase) [nM] | IC50 (G810S mutant RET kinase) [nM] | IC50 (RET kinase Wild Type) [nM] | IC50 (RET kinase V804M) [nM] | Structure (SMILES) |
| --- | --- | --- | --- | --- |
| 288 | 397 | 227 | 805 | CC(C)n1c2c(c3c(N)ncnc31)-c1noc(C3CC3)c1CN(c1ccn(C)n1)C2 [Example 34, 3-cyclopropyl-7-isopropyl-5-(1-methyl-1H-pyrazol-3-yl)-4,5,6,7-tetrahydroisoxazolo[4,3-c]pyrimido[5′,4′:4,5]pyrrolo[3,2-e]azepin-11-amine] |
| 224 | 298 | 103 | 533 | CC(C)n1c2c(c3c(N)ncnc31)-c1noc(C3CC3)c1C(=O)N(CCN1CCS(=O)(=O)CC1)C2 [Example 9, 11-amino-3-cyclopropyl-5-(2-(1,1-dioxidothiomorpholino)ethyl)-7-isopropyl-6,7-dihydroisoxazolo[4,3-c]pyrimido[5′,4′:4,5]pyrrolo[3,2-e]azepin-4(5H)-one] |
| 272 | 646 | 143 | 376 | CC(C)(O)[C@H]1C[C@@H](n2c3c(c4c(N)ncnc42)-c2noc(C4CC4)c2C(O)CC3)C1 (stereo partly drawn) [Example 138, 11-Amino-3-cyclopropyl-7-((1s,3s)-3-(2-hydroxypropan-2-yl)cyclobutyl)-4,5,6,7-tetrahydroisoxazolo[4″,3″:6′,7′]cyclohepta[1′,2′:4,5]pyrrolo[2,3-d]pyrimidin-4-ol 2,2,2-trifluoroacetate] |
| 1320 | 1320 | 571 | 2210 | CC(C)n1c2c(c3c(N)ncnc31)-c1noc(C3CC3)c1CN(C)C2 [Example 31, 3-cyclopropyl-7-isopropyl-5-methyl-4,5,6,7-tetrahydroisoxazolo[4,3-c]pyrimido[5′,4′:4,5]pyrrolo[3,2-e]azepin-11-amine] |
| 308 | 859 | 275 | 749 | CO[C@H]1CCc2c(c3c(N)ncnc3n2C(C)C)-c2noc(C3CC3)c21 (single isomer, unassigned) [Example 59] |
| 435 | 282 | 357 | 1050 | COc1ccc(-n2c3c(c4c(N)ncnc42)-c2noc(C4CC4)c2C(O)CC3)cn1 (stereo not drawn) [Example 114, 11-Amino-3-cyclopropyl-7-(6-methoxypyridin-3-yl)-4,5,6,7-tetrahydroisoxazolo[4″,3″:6′,7′]cyclohepta[1′,2′:4,5]pyrrolo[2,3-d]pyrimidin-4-ol 2,2,2-trifluoroacetate] |
| 533 | 433 | 49 | 241 | CC(C)n1c2c(c3c(N)ncnc31)-c1noc(C3CC3)c1C(=O)N(C1CCN(Cc3ccccc3)C1)C2 (stereo not drawn) [Example 17, 11-amino-5-(1-benzylpyrrolidin-3-yl)-3-cyclopropyl-7-isopropyl-6,7-dihydroisoxazolo[4,3-c]pyrimido[5′,4′:4,5]pyrrolo[3,2-e]azepin-4(5H)-one] |
| 308 | 581 | 142 | 595 | CNC1CCc2c(c3c(N)ncnc3n2C(C)C)-c2noc(C3CC3)c21 (stereo not drawn) [Example 27, 3-cyclopropyl-7-isopropyl-N4-methyl-4,5,6,7-tetrahydroisoxazolo[4″,3″:6′,7′]cyclohepta[1′,2′:4,5]pyrrolo[2,3-d]pyrimidine-4,11-diamine] |
| 252 | 293 | 112 | 865 | COc1ccc(CCN2Cc3c(c4c(N)ncnc4n3C(C)C)-c3noc(C4CC4)c3C2=O)cc1 [Example 14, 11-amino-3-cyclopropyl-7-isopropyl-5-(4-methoxyphenethyl)-6,7-dihydroisoxazolo[4,3-c]pyrimido[5′,4′:4,5]pyrrolo[3,2-e]azepin-4(5H)-one] |
| 3300 | 2710 | 3440 | 6240 | Nc1ncnc2[nH]c3c(c12)-c1noc(C2CC2)c1C(=O)CC3 [Example 111, 11-amino-3-cyclopropyl-6,7-dihydroisoxazolo[4″,3″:6′,7′]cyclohepta[1′,2′:4,5]pyrrolo[2,3-d]pyrimidin-4(5H)-one] |
| 560 | 488 | 112 | 355 | CC(=O)N1CCC(n2c3c(c4c(N)ncnc42)-c2noc(C4CC4)c2C(O)CC3)C1 (stereo not drawn) [Example 134, 1-(3-(11-amino-3-cyclopropyl-4-hydroxy-5,6-dihydroisoxazolo[4″,3″:6′,7′]cyclohepta[1′,2′:4,5]pyrrolo[2,3-d]pyrimidin-7(4H)-yl)pyrrolidin-1-yl)ethan-1-one 2,2,2-trifluoroacetate] |
| 2180 | 2300 | 1790 | 6830 | Nc1ncnc2[nH]c3c(c12)-c1noc(C2CC2)c1C(=O)NC3 [Example 66, 11-amino-3-cyclopropyl-6,7-dihydroisoxazolo[4,3-c]pyrimido[5′,4′:4,5]pyrrolo[3,2-e]azepin-4(5H)-one 2,2,2-trifluoroacetate] |
| 649 | 921 | 342 | 3120 | CC(C)n1c2c(c3c(N)ncnc31)-c1noc(C3CC3)c1CN(C(=O)C1CC1)C2 [Example 38, (11-amino-3-cyclopropyl-7-isopropyl-6,7-dihydroisoxazolo[4,3-c]pyrimido[5′,4′:4,5]pyrrolo[3,2-e]azepin-5(4H)-yl)(cyclopropyl)methanone] |
| 724 | 973 | 621 | 2200 | CC(C)n1c2c(c3c(N)ncnc31)-c1noc(C3CC3)c1CN(CCO)C2 [Example 40, 2-(11-amino-3-cyclopropyl-7-isopropyl-6,7-dihydroisoxazolo[4,3-c]pyrimido[5′,4′:4,5]pyrrolo[3,2-e]azepin-5(4H)-yl)ethan-1-ol 2,2,2-trifluoroacetate] |
| 354 | 648 | 205 | 1790 | CC(C)n1c2c(c3c(N)ncnc31)-c1noc(C3CC3)c1C(=O)N(CCc1cnn(C)c1)C2 [Example 16, 11-amino-3-cyclopropyl-7-isopropyl-5-(2-(1-methyl-1H-pyrazol-4-yl)ethyl)-6,7-dihydroisoxazolo[4,3-c]pyrimido[5′,4′:4,5]pyrrolo[3,2-e]azepin-4(5H)-one] |
